Test results taken from the OPERA property sets (Mansouri et al. 2018).

Compared with `O=C1NC(=O)C(c2ccccc2)(c2ccccc2)N1`, `C(=Nc1ccccc1)c1ccccc1` is lower in melting point: 296 °C for the first, 54 °C for the second.

Going from `NC1CCCC1` to `OC[C@@H]1CCCNC1`, the melting point rises from -82.7 °C to 61 °C.

Compared with `COc1ccc2c3c1O[C@H]1[C@@H](O)C=C[C@H]4[C@@H](C2)[N@@+](C)([O-])CC[C@@]341`, `CC[C@@]12CCCN3CC[C@]4(c5cccc(OC)c5N(C(C)=O)[C@@H]4CC1)[C@H]32` is lower in melting point: 232 °C for the first, 208 °C for the second.

Going from `Nc1cccc(Br)c1` to `O=C(O)c1cccc(Cl)c1`, the melting point rises from 18.5 °C to 158 °C.

Going from `C=CC=O` to `N#CC=Cc1ccco1`, the melting point rises from -87.7 °C to 38 °C.

Compared with `CCCCCCCCCCCCCCCCCCC(C)c1ccccc1` (stereo not given), `CCCCCCCCCCCCCCCC(=O)[O-].[Na+]` is higher in melting point: 29 °C for the first, 286 °C for the second.

Compared with `CNC(=O)Oc1ccc(N(C)C)c(C)c1`, `CC(=O)Oc1cccc(C)c1` is lower in melting point: 93.5 °C for the first, 12 °C for the second.

First: CCSc1nc(NC(C)C)nc(NC(C)C)n1
Second: CCC1(C(C)C)C(=O)NC(=O)NC1=O
The melting point of the first is lower: 105 °C for the first, 203 °C for the second.

Compared with `COc1c(Cl)c(Cl)c(O)c(Cl)c1Cl`, `COc1cccc(CO)c1O` is lower in melting point: 116 °C for the first, 61.5 °C for the second.

First: O=c1c(O)c(-c2ccc(O)c(O)c2)oc2cc(O)cc(O)c12
Second: COc1ccc(-c2cc(=O)c3c(O)cc(O)cc3o2)cc1
The melting point of the first is higher: 316 °C for the first, 263 °C for the second.

First: O=C(NC(=O)c1ccccc1)c1ccccc1
Second: NCCOB(c1ccccc1)c1ccccc1
The melting point of the first is lower: 152 °C for the first, 193 °C for the second.

Going from `O=C(O)c1ccc(O)c(C(=O)O)c1` to `O=C(O)CCc1c[nH]c2ccccc12`, the melting point falls from 310 °C to 134 °C.

Going from `CCCCCCCC/C=C\CCCCCCCC(=O)OCC` to `CCCCCCCCC(Br)C(=O)O` (stereo not given), the melting point rises from -13.1 °C to 4 °C.

Going from `CCC(=O)OC` to `CNNC`, the melting point rises from -87.5 °C to -9 °C.

First: Cc1ccn(-c2ccccc2)n1
Second: N#CC(Br)c1ccccc1 (stereo not given)
The melting point of the first is higher: 37 °C for the first, 29 °C for the second.

Compared with `NS(=O)(=O)c1ccc(SCCCCCO)cc1`, `O=[N+]([O-])c1ccc2c(c1)Cc1cc([N+](=O)[O-])ccc1-2` is higher in melting point: 103 °C for the first, 334 °C for the second.

Compared with `FC(F)(F)C(F)(F)C(F)(F)C(F)(F)C(F)(F)F`, `FC(F)(F)C(F)(F)C(F)(F)N(C(F)(F)C(F)(F)C(F)(F)F)C(F)(F)C(F)(F)C(F)(F)F` is higher in melting point: -100 °C for the first, -52 °C for the second.

First: CCCCOC(=O)COc1cc(Cl)c(Cl)cc1Cl
Second: CN1CCN(C(=O)CC(c2ccc(Cl)cc2)(c2ccc(Cl)cc2)c2ccc(Cl)cc2)CC1
The melting point of the first is lower: 28.5 °C for the first, 214 °C for the second.

First: C[C@]12CCc3c(ccc4cc(O)ccc34)[C@@H]1CCC2=O
Second: Nc1c2c(nc3ccccc13)CCCC2
The melting point of the first is higher: 258 °C for the first, 184 °C for the second.

First: CP(C)C
Second: Cc1ccsc1C
The melting point of the first is lower: -85 °C for the first, -49 °C for the second.

Compared with `Nc1cc([N+](=O)[O-])cc([N+](=O)[O-])c1`, `NS(=O)(=O)c1cc2c(s1)SCCC2=O` is higher in melting point: 163 °C for the first, 222 °C for the second.

First: FC(F)(Cl)C(F)(Cl)C(F)(F)Cl
Second: COC(=O)c1c(C(F)F)nc(C(F)(F)F)c(C2=NCCS2)c1CC(C)C
The melting point of the first is lower: -72 °C for the first, 78 °C for the second.

First: CC(=O)c1ccc[nH]1
Second: COc1cc2c(c(OC)c1OC)-c1ccc(SC)c(=O)cc1[C@@H](NC(C)=O)CC2
The melting point of the first is lower: 90 °C for the first, 193 °C for the second.

For `O=C1NC(=O)C(c2ccccc2)(c2ccccc2)N1`, the ready biodegradability was “not readily biodegradable”.
In the case of `Cc1ccc(C)c(C(C)c2ccccc2)c1` (stereo not given), the ready biodegradability is reported as “not readily biodegradable”.
In the case of `C=CC=O`, the ready biodegradability is reported as “not readily biodegradable”.
In the case of `CC(=O)OCC(CO)OC(C)=O` (stereo not given), the ready biodegradability is reported as “readily biodegradable”.
For `CNC(=O)Oc1ccc(N(C)C)c(C)c1`, the ready biodegradability was “readily biodegradable”.
With `O=C(O)c1cccc(Cl)c1` the ready biodegradability was “readily biodegradable”.
In the case of `O=S(=O)(O)c1cccc2c(S(=O)(=O)O)cccc12`, the ready biodegradability is reported as “readily biodegradable”.

Compared with `FCCC(F)(F)F`, `FC(F)(Cl)C(F)(Cl)C(F)(F)Cl` is higher in boiling point: 29.4 °C for the first, 73.7 °C for the second.

Going from `NC1CCCC1` to `CCCN1CCCCC1`, the boiling point rises from 108 °C to 152 °C.

Compared with `Nc1cccc(Br)c1`, `CC(=O)c1cccc(C)c1` is lower in boiling point: 251 °C for the first, 220 °C for the second.

Going from `C=CC=O` to `CCCCC=CC=O`, the boiling point rises from 52.6 °C to 166 °C.

First: CC(=O)OCC(CO)OC(C)=O (stereo not given)
Second: CC(=O)OCC#N
The boiling point of the first is higher: 259 °C for the first, 200 °C for the second.

Going from `CCCCCCCOCCCCCCC` to `CCCC(N)CCC`, the boiling point falls from 258 °C to 140 °C.

Compared with `CCC(=O)OC`, `COC(=O)CCO` is higher in boiling point: 79.8 °C for the first, 179 °C for the second.

Compared with `CNNC`, `CP(C)C` is lower in boiling point: 81 °C for the first, 37.5 °C for the second.

First: Cc1ccn(-c2ccccc2)n1
Second: CN=Cc1ccccc1
The boiling point of the first is higher: 255 °C for the first, 185 °C for the second.

Compared with `FC(F)(F)C(F)(F)C(F)(F)C(F)(F)C(F)(F)F`, `FC(F)(F)C(F)(F)C(F)(F)N(C(F)(F)C(F)(F)C(F)(F)F)C(F)(F)C(F)(F)C(F)(F)F` is higher in boiling point: 29.2 °C for the first, 130 °C for the second.

Going from `C=C[Si](OC(C)C)(OC(C)C)OC(C)C` to `CC(C)COC(=O)c1ccccc1`, the boiling point rises from 180 °C to 242 °C.

Compared with `CC(Cl)CC(Cl)Cl` (stereo not given), `CC(Cl)=CCCl` is lower in boiling point: 152 °C for the first, 131 °C for the second.

First: CC(=O)Oc1cccc(C)c1
Second: CC(=O)c1ccc[nH]1
The boiling point of the first is lower: 212 °C for the first, 220 °C for the second.

Compared with `Cc1ccsc1C`, `C(=Nc1ccccc1)c1ccccc1` is higher in boiling point: 142 °C for the first, 310 °C for the second.

`C=CC=O` and `CCC(=O)OC` are within 0.2 log units of each other in log10 Henry constant (atm·m³/mol): -3.91 for the first, -3.76 for the second.

Compared with `C=CC=O`, `CCS(=O)CCSP(=O)(OC)OC` (stereo not given) is lower in log10 vapour pressure (mmHg): 2.44 for the first, -4.55 for the second.

`CCSc1nc(NC(C)C)nc(NC(C)C)n1` and `COC(=O)c1c(C(F)F)nc(C(F)(F)F)c(C2=NCCS2)c1CC(C)C` are within 0.2 log units of each other in log10 vapour pressure (mmHg): -5.8 for the first, -5.65 for the second.

`CCC(=O)OC` and `CNNC` are within 0.2 log units of each other in log10 vapour pressure (mmHg): 1.92 for the first, 1.84 for the second.

First: CC12CCC(C1)C(C)(C)C2O (stereo not given)
Second: CCCCOC(=O)COc1cc(Cl)c(Cl)cc1Cl
The log10 vapour pressure (mmHg) of the first is higher: -1.2 for the first, -4.82 for the second.

Compared with `CNC(=O)Oc1ccc(N(C)C)c(C)c1`, `Nc1cc([N+](=O)[O-])cc([N+](=O)[O-])c1` is higher in log10 Koc (L/kg): 2 for the first, 2.55 for the second.

Going from `CCSc1nc(NC(C)C)nc(NC(C)C)n1` to `CCS(=O)CCSP(=O)(OC)OC` (stereo not given), the log10 Koc (L/kg) falls from 3.07 to 1.
